Patent US20240415918A1, “Polypeptide and its use as a CCK receptor agonist/antagonist” (Centre for Regenerative Medicine & Health, Hong Kong …, priority 2021, published 2024)
Where a SMILES comes first, the peptide text is derived from it. [ ]: non-standard residue; d: D form. The star is where a group is joined. dTrp(5-OH) = N[C@H](Cc1c[nH]c2ccc(O)cc12)C(=O)O; sY = N[C@@H](Cc1ccc(OS(=O)(=O)O)cc1)C(=O)O; NMeW = CN[C@@H](Cc1c[nH]c2ccccc12)C(=O)O; Phe(3-Br) = N[C@@H](Cc1cccc(Br)c1)C(=O)O; dNMeW = CN[C@H](Cc1c[nH]c2ccccc12)C(=O)O; dGly(nOct) = CCCCCCCC[C@@H](N)C(=O)O; Fmoc = O=C(OCC1c2ccccc2-c2ccccc21)*; Ahp(2) = CCCCC[C@H](N)C(=O)O; NMeNle = CCCC[C@H](NC)C(=O)O; Nle = CCCC[C@H](N)C(=O)O

What was measured:
[1] = target: T1, CCK-B receptors (CHO-CCK) (Homo sapiens, UniProt P32239); test: Calcium flux (Fluo-8) agonist test on CHO-CCK model cells; format: cell-based; conditions: for EC50: CHO-CCK cells; for Agonistic Activity (%) at 10 μM: compound at 10 μM, percentage of signal of 20 nM CCK8 alone
T1 construct: expressed in transfected cells; host or cells: CHO (CHO-CCK model cells)
T1 sequence (P32239 1-447): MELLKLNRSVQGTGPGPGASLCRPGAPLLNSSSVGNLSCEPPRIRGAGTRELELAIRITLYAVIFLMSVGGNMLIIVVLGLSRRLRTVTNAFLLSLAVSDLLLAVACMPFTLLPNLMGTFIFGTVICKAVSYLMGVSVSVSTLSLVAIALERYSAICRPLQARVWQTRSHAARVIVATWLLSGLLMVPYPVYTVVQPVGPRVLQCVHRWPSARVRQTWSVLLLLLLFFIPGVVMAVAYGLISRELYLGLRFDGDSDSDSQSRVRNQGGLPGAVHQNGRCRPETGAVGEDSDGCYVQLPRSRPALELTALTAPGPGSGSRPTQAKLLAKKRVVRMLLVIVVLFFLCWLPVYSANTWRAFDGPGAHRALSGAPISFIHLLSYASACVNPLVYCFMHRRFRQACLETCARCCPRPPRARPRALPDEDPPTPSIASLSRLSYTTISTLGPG
Method in brief: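 Agonist-mode Fluo-8 calcium flux read on CHO-CCK cells after dye loading 30 min at 37 °C plus 30 min at room temperature.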

[2] = target: T1, CCK-B receptors (CHO-CCK); test: Calcium flux (Fluo-8) antagonist test on CHO-CCK model cells in presence of CCK8; format: cell-based
[3] = Fluo-8 calcium flux, 100% control = 20 nM CCK8
[4] = in presence of 10 nM CCK8, bound in μM
[5] = Fluo-8 calcium flux, bound in μM
[6] = compound together with 10 nM CCK8, bound in μM
[7] = compound alone, 100% = 20 nM CCK8
[8] = compound together with 10 nM CCK8

SMILES | EC50 [1, 3] | EC50 ([2]; in presence of 10 nM CCK8) | Agonistic Activity (%) at 10 μM [1] | EC50 [2, 8] | further results
CCCCCCCC[C@@H](NC(C)=O)C(=O)N[C@@H](CCCC)C(=O)N[C@@H](CCC(=O)O)C(=O)N[C@@H](Cc1cccc(Br)c1)C(N)=O [HT-265, Ac-Da-Nle-Glu-Phe(3-Br)-NH2] (Ac-[dGly(nOct)][Nle]E[Phe(3-Br)]-NH2) | 13 µM |  |  |  | EC50 [2, 4]: > 10 µM
CCCCC[C@H](NC(=O)[C@@H](Cc1c[nH]c2ccccc12)N(C)C(=O)OCC1c2ccccc2-c2ccccc21)C(=O)N[C@@H](CC(=O)OC)C(=O)N[C@@H](Cc1cccc(Br)c1)C(N)=O [HT-254, Fmoc-(N-Me-Trp)-Pa-Asp(O-Me)-Phe(3-Br)-NH2] (Fmoc-[dNMeW][Ahp(2)]D(OMe)[Phe(3-Br)]-NH2) | 0.0226 µM | 1.04 µM |  |  | 
CSCC[C@H](NC(=O)[C@H](Cc1c[nH]c2ccccc12)NC(C)=O)C(=O)N[C@@H](CC(=O)O)C(=O)N[C@@H](CCC(=O)O)C(N)=O [HT-196, Ac-Trp-Met-Asp-Glu-NH2] |  |  |  |  | EC50 [1, 5]: > 10 µM; EC50 [2, 4]: > 10 µM
CCCCCCCCCCCCCC[C@@H](NC(C)=O)C(=O)N[C@@H](CCCC)C(=O)N[C@@H](CCCCCC)C(=O)N[C@@H](Cc1cccc(Br)c1)C(N)=O [HT-266, Ac-Ha-Nle-Oa-Phe(3-Br)-NH2] | 0.0402 µM | 1.29 µM |  |  | 
CCCC[C@H](NC(=O)[C@@H](Cc1c[nH]c2ccccc12)N(C)C(=O)CNC(=O)OCC1c2ccccc2-c2ccccc21)C(=O)N[C@@H](CC(=O)O)C(=O)N[C@@H](Cc1cccc(Br)c1)C(N)=O [HT-251, Fmoc-Gly-(N-Me-Trp)-Nle-Asp Phe(3-Br)-NH2] | 0.00592 µM | 1.61 µM |  |  | 
C[S+]([O-])CC[C@H](NC(=O)[C@H](N)Cc1c[nH]c2ccccc12)C(=O)N[C@@H](CC(=O)O)C(=O)N[C@@H](Cc1cccc(F)c1)C(N)=O (stereo partly drawn) [HT-44, D-Trp-Met(O)-Asp-Phe(3-F)-NH2] |  |  | 34.63% |  | EC50 [2, 6]: > 10 µM
COC(=O)C[C@H](NC(=O)[C@H](CCSC)NC(=O)[C@H](N)Cc1c[nH]c2ccccc12)C(=O)N[C@@H](Cc1cc(Cl)cc(Cl)c1)C(N)=O [HT-89, D-Trp-Met-Asp(Ome)-Phe(3,5-DiCl)-NH2] |  |  | 44.86% | 3.62 µM | EC50 [1, 7]: 3.21 µM
CCCC[C@H](NC(=O)[C@@H](Cc1c(C)[nH]c2ccccc12)NC(C)=O)C(=O)N[C@@H](CC(=O)O)C(=O)N[C@@H](Cc1cn(C)c2ccccc12)C(N)=O [HT-234, Ac-(2-Me-Trp)-Nle-Asp-(1-Me-Trp)-NH2] | 5.46 µM | 4 µM |  |  | 
CCCC[C@H](NC(=O)[C@@H](Cc1c[nH]c2ccc(O)cc12)NC(C)=O)C(=O)N[C@@H](CCC(=O)O)C(=O)N[C@@H](Cc1cccc(Br)c1)C(N)=O [HT-240, Ac-(5-HTP)-Nle-Glu-Phe(3-Br)-NH2] (Ac-[dTrp(5-OH)][Nle]E[Phe(3-Br)]-NH2) | 0.527 µM |  |  |  | EC50 [2, 4]: > 10 µM
CCCC[C@H](NC(=O)[C@H](Cc1c[nH]c2ccccc12)N(C)C(=O)CNC(=O)OCC1c2ccccc2-c2ccccc21)C(=O)N[C@@H](CC(=O)O)C(=O)N[C@@H](Cc1cccc(Br)c1)C(N)=O [HT-250, Fmoc-Gly-(N-Me-D-Trp)-Nle-Asp-Phe(3-Br)-NH2] | 0.386 µM | 2.85 µM |  |  | 
CSCC[C@H](NC(=O)[C@@H](Cc1c[nH]c2ccccc12)NC(C)=O)C(=O)N[C@@H](CC(N)=O)C(=O)N[C@@H](Cc1cccc(Br)c1)C(N)=O [HT-187, Ac-D-Trp-Met-Asn-Phe(3-Br)-NH2] (Ac-[dW]MN[Phe(3-Br)]-NH2) |  |  |  |  | EC50 ([1]; compound alone, bound in μM): > 10 µM; EC50 [2, 6]: > 10 µM
CSCC[C@H](NC(=O)[C@H](N)Cc1c[nH]c2ccccc12)C(=O)N[C@@H](CC(=O)O)C(=O)N[C@@H](Cc1cc(Cl)cc(Cl)c1)C(N)=O [HT-38, D-Trp-Met-Asp-Phe(3,5-DiCl)-NH2] |  |  | 122.74% | 0.0997 µM | EC50 [1, 7]: 0.0493 µM
CSCC[C@H](NC(=O)[C@@H](Cc1c[nH]c2ccccc12)NC(C)=O)C(=O)N[C@@H](CCCCN)C(=O)N[C@@H](Cc1cccc(Br)c1)C(N)=O [HT-188, Ac-D-Trp-Met-Lys-Phe(3-Br)-NH2] (Ac-[dW]MK[Phe(3-Br)]-NH2) |  |  |  | 7.55 µM | EC50 [1, 7]: 1.84 µM
CSCC[C@H](NC(=O)[C@H](Cc1c[nH]c2ccccc12)NC(=O)CNC(C)=O)C(=O)N[C@@H](CC(=O)O)C(N)=O [HT-211, Ac-Gly-Trp-Met-Asp-NH2] (Ac-GWMD-NH2) |  |  |  |  | EC50 [1, 5]: > 10 µM; EC50 [2, 4]: > 10 µM
CSCC[C@H](NC(=O)[C@H](N)Cc1c[nH]c2ccccc12)C(=O)N[C@@H](CC(=O)O)C(=O)N[C@@H](Cc1ccc(F)cc1)C(N)=O [HT-36, D-Trp-Met-Asp-Phe(4-F)-NH2] |  |  | −3.55% | 0.876 µM | EC50 [1, 7]: 0.0888 µM
COC(=O)C[C@H](NC(=O)[C@H](CCSC)NC(=O)[C@H](N)Cc1c[nH]c2ccccc12)C(=O)N[C@@H](Cc1ccc(F)cc1)C(N)=O [HT-87, D-Trp-Met-Asp(Ome)-Phe(4-F)-NH2] |  |  | 28.73% | 9.98 µM | 
CSCC[C@H](NC(=O)[C@@H](Cc1c[nH]c2ccccc12)NC(=O)[C@H](CCC(=O)O)NC(=O)[C@H](CC(C)C)NC(=O)CNC(=O)[C@H](Cc1c[nH]cn1)NC(=O)[C@H](CO)NC(=O)CNC(=O)[C@H](CCCCN)NC(=O)[C@H](CCCNC(=N)N)NC(=O)[C@H](CCCNC(=N)N)NC(=O)[C@H](Cc1c[nH]cn1)NC(=O)[C@H](CCCCN)NC(=O)[C@@H](NC(C)=O)[C@@H](C)O)C(=O)N[C@@H](CC(=O)O)C(=O)N[C@@H](Cc1cccc(Br)c1)C(N)=O [HT-220] (Ac-TKHRRKGSHGLE[dW]MD[Phe(3-Br)]-NH2) | 8.39 µM | 2.88 µM |  |  | 
CCCC[C@H](NC(=O)[C@@H](Cc1cn(C)c2ccccc12)NC(C)=O)C(=O)N[C@@H](CCC(=O)O)C(=O)N[C@@H](Cc1c(C)[nH]c2ccccc12)C(N)=O [HT-246, Ac-(1-Me-Trp)-Nle-Glu-(2-Me-Trp)-NH2] |  | 2.13 µM |  |  | EC50 [1, 5]: > 10 µM
CS(=O)(=O)CC[C@H](NC(=O)[C@H](N)Cc1c[nH]c2ccccc12)C(=O)N[C@@H](CC(=O)O)C(=O)N[C@@H](Cc1cccc(Cl)c1)C(N)=O [HT-60, D-Trp-Met(O2)-Asp-Phe(3-Cl)-NH2] |  |  | 50.72% | 6.61 µM | EC50 [1, 7]: 9.24 µM
C[S+]([O-])CC[C@H](NC(=O)[C@H](N)Cc1c[nH]c2ccccc12)C(=O)N[C@@H](CC(=O)O)C(=O)N[C@@H](Cc1cccc(I)c1)C(N)=O (stereo partly drawn) [HT-45, D-Trp-Met(O)-Asp-Phe(3-I)-NH2] |  |  | 58.98% | 3.37 µM | EC50 [1, 7]: 4.38 µM
CSCC[C@H](NC(=O)[C@H](N)Cc1c[nH]c2ccccc12)C(=O)N[C@@H](CC(=O)O)C(=O)N[C@@H](Cc1ccc(C)cc1)C(N)=O [HT-30, D-Trp-Met-Asp-Phe(4 Me)-NH2] |  |  | 88.74% | 0.683 µM | EC50 [1, 7]: 0.0932 µM
CSCC[C@H](NC(=O)[C@H](Cc1ccc(OS(=O)(=O)O)cc1)NC(=O)[C@H](CC(=O)O)NC(C)=O)C(=O)NCC(N)=O [HT-208, Ac-Asp-Tyr(SO3H)-Met-Gly-NH2] (Ac-D[sY]MG-NH2) |  |  |  |  | EC50 [1, 5]: > 10 µM; EC50 [2, 4]: > 10 µM
CSCC[C@H](NC(=O)[C@H](Cc1c[nH]c2ccccc12)NC(C)=O)C(=O)N[C@@H](CC(=O)O)C(=O)N[C@@H](CCCNC(=N)N)C(N)=O [HT-195, Ac-Trp-Met-Asp-Arg-NH2] (Ac-WMDR-NH2) |  |  |  | 2.2 µM | EC50 ([1]; compound alone, bound in μM): > 10 µM
CCCC[C@@H](C(=O)N[C@@H](CC(=O)O)C(=O)N[C@@H](Cc1cccc(Br)c1)C(N)=O)N(C)C(=O)[C@H](Cc1c[nH]c2ccccc12)N(C)C(=O)OCC1c2ccccc2-c2ccccc21 [HT-200, Fmoc-(N-Me-Trp)-(N-Me-Nle)-Asp-Phe(3-Br)-NH2] (Fmoc-[NMeW][NMeNle]D[Phe(3-Br)]-NH2) | 0.616 µM | 1.77 µM |  |  | 
CCCC[C@H](NC(=O)[C@H](Cc1c[nH]c2ccccc12)NC(C)=O)C(=O)N[C@@H](CC(=O)O)C(=O)N[C@@H](Cc1c[nH]c2ccccc12)C(N)=O [HT-225, Ac-D-Trp-Nle-Asp-Trp-NH2] | 0.0332 µM | 0.475 µM |  |  | 
CSCC[C@H](NC(=O)[C@H](Cc1ccc(O)cc1)NC(C)=O)C(=O)NCC(=O)N[C@@H](Cc1c[nH]c2ccccc12)C(N)=O [HT-207, Ac-Tyr-Met-Gly-Trp-NH2] (Ac-YMGW-NH2) |  |  |  |  | EC50 [1, 5]: > 10 µM; EC50 [2, 4]: > 10 µM
